Measured values reported in PubChem BioAssay (NCI).
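96-well plates; 48 h exposure; 5 concentrations. Endpoints by linear interpolation between flanking doses. Not reached: highest tested concentration assigned. GI50: concentration for 50% inhibition of growth. At the TGI there is no net growth.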

Experiments:
Assay in all cases: DTP human tumour cell line panel, 48 h
HOP-92 NSCLC = system: HOP-92 NSCLC
NCI/ADR-RES ovarian = system: NCI/ADR-RES ovarian
OVCAR-8 ovarian = system: OVCAR-8 ovarian
MALME-3M melanoma = system: MALME-3M melanoma
K-562 leukemia = system: K-562 leukemia
MDA-MB-435 = system: MDA-MB-435
SK-MEL-28 melanoma = system: SK-MEL-28 melanoma
OVCAR-4 ovarian = system: OVCAR-4 ovarian
HCT-15 colon = system: HCT-15 colon
HOP-62 NSCLC = system: HOP-62 NSCLC
A549 NSCLC = system: A549 NSCLC
NCI-H23 lung = system: NCI-H23 lung
A498 renal = system: A498 renal
HL-60(TB) leukemia = system: HL-60(TB) leukemia
HS 578T breast = system: HS 578T breast
COLO 205 colon = system: COLO 205 colon
HCC-2998 colon = system: HCC-2998 colon
KM12 colon = system: KM12 colon
PC-3 prostate = system: PC-3 prostate
CCRF-CEM leukemia = system: CCRF-CEM leukemia
NCI-H522 lung = system: NCI-H522 lung
OVCAR-5 ovarian = system: OVCAR-5 ovarian
NCI-H226 lung = system: NCI-H226 lung
UACC-62 melanoma = system: UACC-62 melanoma
NCI-H460 lung = system: NCI-H460 lung
U251 CNS = system: U251 CNS
786-0 renal = system: 786-0 renal
MOLT-4 leukemia = system: MOLT-4 leukemia
IGROV1 ovarian = system: IGROV1 ovarian
MDA-MB-231 breast = system: MDA-MB-231 breast
MCF7 breast = system: MCF7 breast
SN12C renal = system: SN12C renal
RPMI-8226 leukemia = system: RPMI-8226 leukemia
SK-OV-3 ovarian = system: SK-OV-3 ovarian
BT-549 breast = system: BT-549 breast
SK-MEL-2 melanoma = system: SK-MEL-2 melanoma
TK-10 renal = system: TK-10 renal
LOX IMVI melanoma = system: LOX IMVI melanoma
T-47D breast = system: T-47D breast
ACHN renal = system: ACHN renal
DU-145 prostate = system: DU-145 prostate
SK-MEL-5 melanoma = system: SK-MEL-5 melanoma
SNB-19 CNS = system: SNB-19 CNS
EKVX NSCLC = system: EKVX NSCLC
UACC-257 melanoma = system: UACC-257 melanoma
HCT-116 colon = system: HCT-116 colon
SNB-75 CNS = system: SNB-75 CNS
CAKI-1 renal = system: CAKI-1 renal
SF-539 CNS = system: SF-539 CNS
HT29 colon = system: HT29 colon
SR leukemia = system: SR leukemia
RXF 393 renal = system: RXF 393 renal
SW-620 colon = system: SW-620 colon
SF-268 CNS = system: SF-268 CNS
OVCAR-3 ovarian = system: OVCAR-3 ovarian
SF-295 CNS = system: SF-295 CNS
UO-31 renal = system: UO-31 renal

c1ccc2c(c1)[I+]c1ccccc1-2
GI50 (HOP-92 NSCLC): 18.9 µM
TGI (HOP-92 NSCLC): > 50 µM
GI50 (NCI/ADR-RES ovarian): > 50 µM
TGI (NCI/ADR-RES ovarian): > 50 µM
GI50 (OVCAR-8 ovarian): > 50 µM
TGI (OVCAR-8 ovarian): > 50 µM
GI50 (MALME-3M melanoma): > 50 µM
TGI (MALME-3M melanoma): > 50 µM
GI50 (K-562 leukemia): 28.2 µM
TGI (K-562 leukemia): > 50 µM
GI50 (MDA-MB-435): > 50 µM
TGI (MDA-MB-435): > 50 µM
GI50 (SK-MEL-28 melanoma): > 50 µM
TGI (SK-MEL-28 melanoma): > 50 µM
GI50 (OVCAR-4 ovarian): 21.6 µM
TGI (OVCAR-4 ovarian): > 50 µM
GI50 (HCT-15 colon): > 50 µM
TGI (HCT-15 colon): > 50 µM
GI50 (HOP-62 NSCLC): 28 µM
TGI (HOP-62 NSCLC): > 50 µM
GI50 (A549 NSCLC): > 50 µM
TGI (A549 NSCLC): > 50 µM
GI50 (NCI-H23 lung): 22.9 µM
TGI (NCI-H23 lung): > 50 µM
GI50 (A498 renal): 27.7 µM
TGI (A498 renal): > 50 µM
GI50 (HL-60(TB) leukemia): > 50 µM
TGI (HL-60(TB) leukemia): > 50 µM
GI50 (HS 578T breast): > 50 µM
TGI (HS 578T breast): > 50 µM
GI50 (COLO 205 colon): > 50 µM
TGI (COLO 205 colon): > 50 µM
GI50 (HCC-2998 colon): > 50 µM
TGI (HCC-2998 colon): > 50 µM
GI50 (KM12 colon): > 50 µM
TGI (KM12 colon): > 50 µM
GI50 (PC-3 prostate): > 50 µM
TGI (PC-3 prostate): > 50 µM
GI50 (CCRF-CEM leukemia): > 50 µM
TGI (CCRF-CEM leukemia): > 50 µM
GI50 (NCI-H522 lung): > 50 µM
TGI (NCI-H522 lung): > 50 µM
GI50 (OVCAR-5 ovarian): > 50 µM
TGI (OVCAR-5 ovarian): > 50 µM
GI50 (NCI-H226 lung): > 50 µM
TGI (NCI-H226 lung): > 50 µM
GI50 (UACC-62 melanoma): > 50 µM
TGI (UACC-62 melanoma): > 50 µM
GI50 (NCI-H460 lung): 33.9 µM
TGI (NCI-H460 lung): > 50 µM
GI50 (U251 CNS): 25.5 µM
TGI (U251 CNS): > 50 µM
GI50 (786-0 renal): > 50 µM
TGI (786-0 renal): > 50 µM
GI50 (MOLT-4 leukemia): > 50 µM
TGI (MOLT-4 leukemia): > 50 µM
GI50 (IGROV1 ovarian): > 50 µM
TGI (IGROV1 ovarian): > 50 µM
GI50 (MDA-MB-231 breast): 47.6 µM
TGI (MDA-MB-231 breast): > 50 µM
GI50 (MCF7 breast): > 50 µM
TGI (MCF7 breast): > 50 µM
GI50 (SN12C renal): > 50 µM
TGI (SN12C renal): > 50 µM
GI50 (RPMI-8226 leukemia): 31.7 µM
TGI (RPMI-8226 leukemia): > 50 µM
GI50 (SK-OV-3 ovarian): > 50 µM
TGI (SK-OV-3 ovarian): > 50 µM
GI50 (BT-549 breast): > 50 µM
TGI (BT-549 breast): > 50 µM
GI50 (SK-MEL-2 melanoma): > 50 µM
TGI (SK-MEL-2 melanoma): > 50 µM
GI50 (TK-10 renal): > 50 µM
TGI (TK-10 renal): > 50 µM
GI50 (LOX IMVI melanoma): > 50 µM
TGI (LOX IMVI melanoma): > 50 µM
GI50 (T-47D breast): > 50 µM
TGI (T-47D breast): > 50 µM
GI50 (ACHN renal): > 50 µM
TGI (ACHN renal): > 50 µM
GI50 (DU-145 prostate): 35.6 µM
TGI (DU-145 prostate): > 50 µM
GI50 (SK-MEL-5 melanoma): 24.3 µM
TGI (SK-MEL-5 melanoma): > 50 µM
GI50 (SNB-19 CNS): > 50 µM
TGI (SNB-19 CNS): > 50 µM
GI50 (EKVX NSCLC): 19.4 µM
TGI (EKVX NSCLC): > 50 µM
GI50 (UACC-257 melanoma): > 50 µM
TGI (UACC-257 melanoma): > 50 µM
GI50 (HCT-116 colon): 38.4 µM
TGI (HCT-116 colon): > 50 µM
GI50 (SNB-75 CNS): 8.95 µM
TGI (SNB-75 CNS): > 50 µM
GI50 (CAKI-1 renal): > 50 µM
TGI (CAKI-1 renal): > 50 µM
GI50 (SF-539 CNS): 40.6 µM
TGI (SF-539 CNS): > 50 µM
GI50 (HT29 colon): 38.6 µM
TGI (HT29 colon): > 50 µM
GI50 (SR leukemia): 19.4 µM
TGI (SR leukemia): > 50 µM
GI50 (RXF 393 renal): > 50 µM
TGI (RXF 393 renal): > 50 µM
GI50 (SW-620 colon): > 50 µM
TGI (SW-620 colon): > 50 µM
GI50 (SF-268 CNS): > 50 µM
TGI (SF-268 CNS): > 50 µM
GI50 (OVCAR-3 ovarian): > 50 µM
TGI (OVCAR-3 ovarian): > 50 µM
GI50 (SF-295 CNS): 35 µM
TGI (SF-295 CNS): > 50 µM
GI50 (UO-31 renal): > 50 µM
TGI (UO-31 renal): > 50 µM
